Laboratory results: publication PMC6095608 (PLoS ONE, 2018)

Legend:
[1] = test system: parental MDCK cell line; test: Calcein efflux assay in parental MDCK cells; format: cell-based, canine; conditions: calcein AM 0.25 μM, efavirenz 0.01–50 μM
Protocol: ABC transporter-expressing MDCK cells were seeded in 96-well plates at a density of 25 x 10^3 cells per well and cultivated in DMEM medium supplemented with 10% FBS. […] Intracellular fluorescence was then measured using excitation and emission wavelengths of 350 nm and 465 nm, respectively. […] Calcein fluorescence was measured using excitation and emission wavelengths of 496 nm and 516 nm, respectively.

[2] = target: T1, OCT2 (Homo sapiens, UniProt O15244); test: Transcellular transport assay across MDCK-OCT2 monolayers; format: cell-based; conditions: 10 μM efavirenz, 2 h
T1 construct: expressed in transfected cells; host or cells: MDCKII (MDCK-OCT2)
T1 sequence (O15244 1-555): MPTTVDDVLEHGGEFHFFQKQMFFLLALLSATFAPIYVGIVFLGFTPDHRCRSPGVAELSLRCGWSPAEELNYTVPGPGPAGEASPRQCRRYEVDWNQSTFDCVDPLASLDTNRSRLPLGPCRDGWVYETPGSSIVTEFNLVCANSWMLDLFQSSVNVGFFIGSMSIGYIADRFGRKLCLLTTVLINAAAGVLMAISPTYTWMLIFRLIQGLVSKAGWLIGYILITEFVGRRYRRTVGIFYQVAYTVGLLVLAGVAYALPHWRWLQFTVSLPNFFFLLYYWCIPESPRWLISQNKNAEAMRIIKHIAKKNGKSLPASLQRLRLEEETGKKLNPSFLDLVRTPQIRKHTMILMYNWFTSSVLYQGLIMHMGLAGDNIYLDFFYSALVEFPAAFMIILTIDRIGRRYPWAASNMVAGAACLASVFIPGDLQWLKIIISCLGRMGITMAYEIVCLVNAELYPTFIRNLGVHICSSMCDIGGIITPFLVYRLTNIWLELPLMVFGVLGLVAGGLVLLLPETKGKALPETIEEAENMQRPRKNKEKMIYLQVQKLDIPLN
Protocol: Transport experiments employing polarized monolayers of MDCK-OCT1, MDCK-OCT2, or MDCK-MATE1 cell lines as well as doubly transfected MDCK-OCT1-MATE1 or MDCK-OCT2-MATE1 lines and the non-transfected parental control MDCK-Co cells grown on Transwell 3402 cell culture inserts (3.0 μm pore size, 24 mm diameter; Costar, Corning, NY) were performed as described previously. The number of cells per well was 0.5 x 10^6 in all experiments, and the cells were incubated for 3 days to confluence in standard cultivation medium MEM (Gibco) + 10% FBS. After 3 days’ cultivation, medium was removed from both sides and the cells of the monolayer were washed using pre-warmed PBS. […] The pH of the medium on the basolateral side was 7.4, while that on the apical side was set to 6.0 (adjusted by adding HCl or NaOH, when necessary) to ensure optimal MATE1 transport activity. Cells were incubated at 37°C in 5% CO2 for 2 hours. At the end of the incubation period, 50 μl aliquots were sampled and the rest of the medium was immediately removed. The cells were then washed twice with ice-cold PBS, the membranes supporting cellular monolayers were excised, and the cells were dissolved in a 0.02% SDS solution. The radioactivity of the collected samples and lysed monolayers was measured by liquid scintillation counting (Tri-Carb 2910 TR Perkin Elmer), and the protein concentration of the cell lysates was quantified using the BCA protein assay. Transport rates were recorded in pmol per mg protein in the cellular monolayer.

[3] = parameters: method as in earlier work; conditions: clinical; lamivudine 150 mg twice daily with efavirenz 600 mg once daily; cited from earlier work
[4] = test system: BCRP; parameters: method as in PMID 17202245; conditions: only at 50 μM; cited from earlier work
[5] = cited from earlier work
[6] = target: MDR1 (Homo sapiens, UniProt P08183); test: Hoechst 33342 accumulation assay in MDCK-MDR1 cells
Sequence of MDR1 (P08183 whole entry): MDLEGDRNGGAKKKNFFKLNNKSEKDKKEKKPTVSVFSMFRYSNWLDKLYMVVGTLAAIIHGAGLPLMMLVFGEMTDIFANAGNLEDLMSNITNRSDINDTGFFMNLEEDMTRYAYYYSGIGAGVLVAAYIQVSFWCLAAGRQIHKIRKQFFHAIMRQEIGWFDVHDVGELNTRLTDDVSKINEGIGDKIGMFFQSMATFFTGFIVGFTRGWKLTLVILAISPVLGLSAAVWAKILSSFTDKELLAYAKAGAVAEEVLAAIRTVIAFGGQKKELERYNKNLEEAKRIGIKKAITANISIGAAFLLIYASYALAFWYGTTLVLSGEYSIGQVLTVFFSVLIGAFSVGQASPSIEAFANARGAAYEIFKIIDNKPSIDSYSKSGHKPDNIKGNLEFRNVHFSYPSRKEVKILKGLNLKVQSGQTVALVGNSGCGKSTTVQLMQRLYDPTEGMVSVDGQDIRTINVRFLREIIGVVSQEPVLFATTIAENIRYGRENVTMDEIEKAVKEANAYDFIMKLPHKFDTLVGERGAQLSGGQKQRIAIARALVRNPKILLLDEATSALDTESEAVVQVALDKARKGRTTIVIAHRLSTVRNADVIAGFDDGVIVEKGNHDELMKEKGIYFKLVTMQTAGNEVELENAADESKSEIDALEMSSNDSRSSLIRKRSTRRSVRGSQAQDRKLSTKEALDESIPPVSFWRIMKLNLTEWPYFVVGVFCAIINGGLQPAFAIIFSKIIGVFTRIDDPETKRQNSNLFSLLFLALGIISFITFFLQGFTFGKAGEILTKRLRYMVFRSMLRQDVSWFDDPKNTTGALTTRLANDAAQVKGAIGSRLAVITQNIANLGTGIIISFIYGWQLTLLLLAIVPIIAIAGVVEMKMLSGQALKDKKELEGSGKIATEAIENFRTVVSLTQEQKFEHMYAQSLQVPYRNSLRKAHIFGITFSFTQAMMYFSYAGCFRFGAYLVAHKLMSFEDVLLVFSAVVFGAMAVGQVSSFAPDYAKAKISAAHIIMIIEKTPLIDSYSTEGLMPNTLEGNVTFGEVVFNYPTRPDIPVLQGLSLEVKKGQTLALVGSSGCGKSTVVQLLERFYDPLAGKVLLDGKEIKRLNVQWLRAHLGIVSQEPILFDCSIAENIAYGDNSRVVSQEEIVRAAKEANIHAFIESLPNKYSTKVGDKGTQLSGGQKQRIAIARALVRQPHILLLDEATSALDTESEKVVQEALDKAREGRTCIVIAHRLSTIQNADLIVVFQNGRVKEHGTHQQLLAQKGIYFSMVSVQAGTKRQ
Protocol: ABC transporter-expressing MDCK cells were seeded in 96-well plates at a density of 25 x 10^3 cells per well and cultivated in DMEM medium supplemented with 10% FBS. Forty-eight hours after seeding, the cells were used in accumulation experiments with Hoechst 33342 (a common fluorescent substrate of MDR1 and BCRP) or efflux assays with Calcein (a fluorescent substrate of MRP2). Briefly, at the end of the 48 hours, the medium was aspirated and the cells were washed with pre-warmed PBS and then preincubated with efavirenz in Opti-MEM for 30 minutes. In the Hoechst 33342 assays, a solution of Hoechst 33342 (50 μg/ml) in Opti-MEM was added and allowed to accumulate for 30 minutes. The experiment was stopped by aspirating the medium and washing the cells twice with ice cold PBS. Intracellular fluorescence was then measured using excitation and emission wavelengths of 350 nm and 465 nm, respectively. In the calcein efflux assays, a solution of calcein AM in Opti-MEM with or without efavirenz was added after the pre-incubation phase and allowed to accumulate for 15 minutes. […] Calcein fluorescence was measured using excitation and emission wavelengths of 496 nm and 516 nm, respectively.
Statistical analyses were performed using GraphPad Prism, version 7.03 (GraphPad Software, San Diego, CA). P values were calculated using multiple two-tailed t-tests or one-way ANOVA followed by Dunnett’s or Bonferroni’s multiple comparison test, as appropriate. […] The half-maximal inhibitory concentration (IC50) was calculated by non-linear regression analysis using sigmoidal Hill kinetics.
Model inhibitors of MDR1, BCRP and MRP2, namely LY335979 (LY, 1 μM), Ko143 (2.5 μM), and MK571 (10 μM), respectively, were used as positive controls at the minimal concentrations causing maximal inhibition in the corresponding cellular system and assay. […] Data were analyzed by one-way ANOVA followed by Bonferroni’s multiple comparison test (* P ≤ 0.05, ** P ≤ 0.01, *** P ≤ 0.001) and are presented as means ± SD of at least three experiments (n = 3–5) performed in triplicate.

[7] = target: T1, OCT2; test: Inhibition of net [14C]-metformin uptake in MDCK-OCT2 cells; format: cell-based; conditions: 50 μM metformin, 5 min, pH 7.4, efavirenz 0.01–50 μM, read-out: IC50, inhibition of net OCT2-mediated [14C]-metformin uptake
Protocol: The singly-transfected OCT1, OCT2, MATE1 or control MDCK cells were seeded on 12-well plates at a density of 0.5 x 10^6 cells per well and cultivated in standard cultivation medium MEM (Gibco) + 10% FBS. Forty-eight hours after seeding, uptake experiments with radiolabelled metformin were performed. Cells were washed with 500 μl pre-warmed HBSS buffer of pH 7.4 (for OCTs) or 8.0 (for MATE1). Solutions of [^14C]-metformin (50 μM) in HBSS buffer of pH 7.4 or 8.0 with or without efavirenz were then added, and the resulting mixtures were left to stand for an accumulation period of 5 minutes. […] After the accumulation period, the solutions were aspirated and the cells were washed three times with 500 μl ice-cold HBSS buffer of pH 7.4 or 8.0 before being lysed with 0.02% sodium dodecyl sulphate (SDS). The intracellular accumulation of radioactivity was detected using a liquid scintillation counter (Tri-Carb 2910 TR Perkin Elmer), and protein concentrations in the cell lysates were measured by the BCA protein assay. Net transporter-mediated uptake was obtained by subtracting the accumulation of metformin in vector control cells from that in drug transporter-overexpressing cells.
A p value of ≤ 0.05 was considered statistically significant. […]

Effect on basolateral-to-apical transport of [3H]-MPP+ ([2]; 2 nM MPP+, MDCK-OCT2): Inhibition
Effect on intracellular accumulation of [3H]-MPP+ ([2]; 2 nM MPP+, MDCK-OCT2 monolayers): significantly reduced
Effect on intracellular accumulation of [3H]-lamivudine ([2]; 10 nM lamivudine, MDCK-OCT2): significantly reduced
Effect on transcellular transport of [3H]-lamivudine ([2]; 10 nM lamivudine, basal to apical, MDCK-OCT2): significantly inhibited
Concentrations showing an inhibitory effect on MDR1 ([6]; Hoechst 33342 accumulation): ≥ 25 µM
IC50 ([6]; MDR1 absolute IC50, Hoechst 33342 accumulation, control inhibitor LY335979 1 μM = 100%): 33.3 µM
IC50 ([6]; MDR1 relative IC50, Hoechst 33342 accumulation, maximal inhibition by efavirenz alone = 100%): 24.4 µM
IC50 [7]: 5.66 µM
Structure (SMILES): O=C1Nc2ccc(Cl)cc2[C@@](C#CC2CC2)(C(F)(F)F)O1 [efavirenz, Efavirenz]
Inhibition of calcein efflux from parental MDCK cells [1]: not
Effect on lamivudine AUC [3]: no effect
Effect on lamivudine Cmax [3]: no effect
Increase of lamivudine Cmin [3]: 265%
Inhibition of BCRP [4]: inhibit
Efavirenz concentration in the plasma seen in humans (median) ([5]; humans): 6.9 µM
Efavirenz concentration in the plasma seen in humans (range) ([5]; humans): 0.4 to 48 µM
Average plasma concentration (cp) of efavirenz ([5]; therapeutically, responding HIV-positive patients): ~ 8.7 μM
